Columns and labels:
[1] = biological target: T1, proton, potassium-adenosine triphosphatase (H+,K+-ATPase) (Sus scrofa, UniProt P19156); assay: H+,K+-ATPase inhibitory activity test; format: biochemical; settings: swine gastric mucous membrane microsomal fraction; pH 6.5, 37° C.
T1 construct: The obtained microsomal fraction was used as a proton, potassium—adenosine triphosphatase standard product; from tissue; host or cells: swine stomach, gastric mucous membrane microsomal fraction
Description: According to the method [Biochim. Biophys. Acta, 728, 31 (1983)] of Wallmark et al., a gastric mucous membrane microsomal fraction was prepared from the stomach of swine. First, the stomach was removed, washed with tap water, immersed in 3 mol/L brine, and the surface of the mucous membrane was wiped with a paper towel. The gastric mucous membrane was detached, chopped, and homogenized in a 0.25 mol/L saccharose solution (pH 6.8) containing 1 mmol/L EDTA and 10 mmol/L tris-hydrochloric acid using polytron (Kinematica). The obtained homogenate was centrifuged at 20,000×g for 30 min and the supernatant was centrifuged at 100,000×g for 90 min. The precipitate was suspended in 0.25 mol/L saccharose solution, superimposed on a 0.25 mol/L saccharose solution containing 7.5% Ficoll, and centrifuged at 100,000×g for 5 hr. […]
To 40 μL of a 50 mmol/L HEPES-tris buffer (5 mmol/L magnesium chloride, 10 mmol/L potassium chloride, 10 […], pH=6.5) containing 2.5 μg/mL (based on the protein concentration) of the enzyme standard product was added a test compound (5 μL) dissolved in a 10% aqueous dimethyl sulfoxide solution, and the mixture was incubated at 37° C. for 30 min. […] After allowing to stand at room temperature for 15 min, the resulting reaction product of inorganic phosphorus with malachite green was colorimetrically determined at a wavelength of 610 nm. […]

[2] = test system: Human liver cancer-derived cell line HepG2; assay: intracellular ATP content in HepG2 cells (ATPLite); format: cell-based; settings: HepG2, culture for one day, relative value to control (without drug), n≧3, average
Description: Human liver cancer-derived cell line HepG2 (ATCC No. HB-8065) was passaged using Dulbecco's Modified Eagle medium (DMEM; Invitrogen) containing 10% fetal bovine serum (FBS; TRACE SCIENTIFIC LTD.), 1 mmol/L sodium pyruvate (Invitrogen), 2 mmol/L L-glutamine (Invitrogen), 50 IU/mL penicillin (Invitrogen) and 50 μg/mL streptomycin (Invitrogen) at 5% CO2. 37° C. The test reagent was prepared with DMSO to 10 mM, and further diluted with DMEM medium containing 0.5% FBS, 1 mmol/L sodium pyruvate, 2 mmol/L L-glutamine, 50 IU/mL penicillin and 50 μg/mL streptomycin to a final concentration of DMSO of 0.1%. HepG2 (2×10^4 cells/well) was cultured on a 96 well white plate (Costar) with the test reagent at 5% CO2, 37° C. After culture for one day, the intracellular ATP content was measured using ATPLite™ (PerkinElmer Life Sciences). The results are shown in Table 24 (n≧3, average value±SD) as a relative value (%) to control (without addition of drug) at 30 μM.

T1 sequence (P19156 2-1034 limits assumed): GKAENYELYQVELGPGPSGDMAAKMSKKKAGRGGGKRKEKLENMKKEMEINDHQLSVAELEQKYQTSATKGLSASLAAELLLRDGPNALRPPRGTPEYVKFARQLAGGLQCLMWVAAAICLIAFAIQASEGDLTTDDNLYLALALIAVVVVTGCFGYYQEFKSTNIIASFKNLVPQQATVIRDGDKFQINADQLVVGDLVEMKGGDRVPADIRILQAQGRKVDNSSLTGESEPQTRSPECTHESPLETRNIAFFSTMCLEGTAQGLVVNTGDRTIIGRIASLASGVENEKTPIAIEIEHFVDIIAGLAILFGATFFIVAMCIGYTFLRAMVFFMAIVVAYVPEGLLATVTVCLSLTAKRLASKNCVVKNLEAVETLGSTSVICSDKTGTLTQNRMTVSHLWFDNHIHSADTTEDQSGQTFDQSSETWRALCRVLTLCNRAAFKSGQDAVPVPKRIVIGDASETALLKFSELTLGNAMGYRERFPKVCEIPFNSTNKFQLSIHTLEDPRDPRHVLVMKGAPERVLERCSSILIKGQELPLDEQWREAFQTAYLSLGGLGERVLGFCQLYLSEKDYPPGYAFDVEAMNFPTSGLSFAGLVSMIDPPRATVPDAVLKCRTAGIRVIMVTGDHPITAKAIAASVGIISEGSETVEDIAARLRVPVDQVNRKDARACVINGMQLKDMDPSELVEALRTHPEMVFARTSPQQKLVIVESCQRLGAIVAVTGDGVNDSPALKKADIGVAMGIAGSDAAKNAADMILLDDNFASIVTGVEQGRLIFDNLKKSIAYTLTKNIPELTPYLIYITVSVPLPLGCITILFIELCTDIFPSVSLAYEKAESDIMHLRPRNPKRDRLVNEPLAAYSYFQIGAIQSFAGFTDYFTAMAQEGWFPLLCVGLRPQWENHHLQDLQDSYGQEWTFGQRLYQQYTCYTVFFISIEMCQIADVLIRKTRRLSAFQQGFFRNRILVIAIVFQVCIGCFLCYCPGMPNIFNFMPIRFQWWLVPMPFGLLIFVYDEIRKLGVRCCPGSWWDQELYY
T1 sequence (P18434 whole entry partner): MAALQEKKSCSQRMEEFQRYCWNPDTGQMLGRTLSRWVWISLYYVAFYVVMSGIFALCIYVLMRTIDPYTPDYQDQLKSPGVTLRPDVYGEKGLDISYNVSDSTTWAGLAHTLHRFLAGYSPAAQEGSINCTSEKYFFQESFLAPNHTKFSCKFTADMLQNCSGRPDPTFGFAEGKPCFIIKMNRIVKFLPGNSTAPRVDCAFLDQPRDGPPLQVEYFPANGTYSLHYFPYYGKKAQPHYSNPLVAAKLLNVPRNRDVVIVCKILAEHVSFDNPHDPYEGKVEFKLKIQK

SMILES | IC50 [1] | ATP content (%, 30 μM) [2]
CNCc1cc(-c2ccccc2)n(S(=O)(=O)c2ccc(C)nc2)c1.Cl.Cl [Example 24, N-methyl-1-{1-[(6-methylpyridin-3-yl)sulfonyl]-5-phenyl-1H-pyrrol-3-yl}methanamine dihydrochloride] | 0.034 µM | 76.5%
CNCc1cc(-c2ccc(Cl)cc2F)n(S(=O)(=O)c2cccnc2)c1.Cl.Cl [Example 34, 1-[5-(4-chloro-2-fluorophenyl)-1-(pyridin-3-ylsulfonyl)-1H-pyrrol-3-yl]-N-methylmethanamine dihydrochloride] | 0.0089 µM | 53.6%

From patent publication US8436187B2, “1-heterocyclylsulfonyl, 3-aminomethyl, 5- (hetero-) aryl substituted 1-H-pyrrole derivatives as acid secretion inhibitors” (Takeda Pharmaceutical Company Limited, priority 2005, dated 2013)
